Measurements from patent publication US20040067998A1, “Antifungal and/or antiparasitic pharmaceutical composition and novel indole derivatives as active principle of such a composition” (priority 2003, published 2004).
In brackets after ≈: the same amount, converted by molar mass. Several values for one entry are separate records, joined by “and”; a condition that tells them apart may be missing. Equal values may be shown once. Read-outs that look alike come from different tables or passages of the source.

Experiments:
[1] = tested on: Aspergillus fumigatus (strain n°AF 980003); experiment: Antifungal activity on a clinical strain of Aspergillus fumigatus (Alamar Blue microplate test); type: cell-based; conditions: strain AF980003; for MIC: Aspergillus fumigatus, read-out: CMI or CI80 Aspergillus fumigatus (AF980003)
[2] = tested on: promastigote stage of Leishmania mexicana; experiment: Antiparasitic activity on the promastigote form of Leishmania (MTT); type: cell-based
[3] = tested on: Candida albicans (strain n° CA980001); experiment: Antifungal activity on a clinical strain of Candida albicans (MTT colorimetric microplate test); type: cell-based; conditions: for MIC / CMI or CI80 Candida albicans (CA980001): strain CA980001; for MIC: read-out: CMI or CI80 Candida albicans (CA980001); for activity of inhibition of Candida albicans (in words): summary of Tables 27 to 40
[4] = tested on: intracellular amastigote form of Leishmania mexicana; experiment: Anti-leishmanian activity on the amastigote form in peritoneal macrophages of BALB/c mice; type: cell-based; conditions: for IC50: Leishmania mexicana, Peritoneal macrophage, read-out: CI50 Intracellular amastigotes
Leishmania major = experiment: Anti-leishmanian activity in vivo on a model of cutaneo-mucosal and visceral leishmaniasis; design: species or system male BALB/c mice
Experimental: (1999), Croft et al. (1993) and Hill et al. (1983). The animals used (Centre d'élevage R. Janvier, Le Genest-St-France) were male BALB/c mice, aged 7 weeks at the time of inoculation of the parasites. This operation was performed in accordance with the legislation relating to animal experimentation. […] Days after the inoculation, the treatment was administered intraperitoneally for 10 days. Three weeks after the treatment, its effectiveness was determined by determining the parasite level in the liver, spleen, popliteal ganglion and the cutaneous lesion.

[5] = tested on: Candida albicans (CA98001); experiment: Antifungal activity in vivo on a model of disseminated candidiasis; design: species or system female Swiss mice
[6] = tested on: Candida krusei (4 strains); experiment: Antifungal activity in vitro on clinical strains of Candida: krusei (4 strains); type: cell-based
[7] = tested on: Candida parapsilosis (2 strains); experiment: Antifungal activity in vitro on clinical strains of Candida: parapsilosis (2 strains); type: cell-based
[8] = tested on: Candida albicans (4 strains); experiment: Antifungal activity in vitro on clinical strains of Candida: albicans (4 strains); type: cell-based; conditions: for activity against strains of Candida albicans (in words): clinical strains
[9] = tested on: Candida lusitaniae (1 strain); experiment: Antifungal activity in vitro on clinical strains of Candida: lusitaniae (1 strain); type: cell-based; conditions: for CI80 on clinical strains of Candida: strain CL980001 (Candida lusitaniae); for activity against Candida lusitaniae (in words): clinical strain
[10] = Leishmania mexicana; promastigotes; 36 h at 26° C., MTT; read-out: CI50 Leishmania mexicana Promastigotes
[11] = Candida albicans, 24 h at 37° C., MTT
[12] = Leishmania mexicana; read-out: CI50 Leishmania mexicana Promastigotes
[13] = compound 45 intraperitoneally for 10 days, dose not given, three weeks after treatment
[14] = strain CK980002 (Candida krusei)
[15] = strain CK980003 (Candida krusei)
[16] = strain CK980004 (Candida krusei)
[17] = strain CP980002 (Candida parapsilosis)
[18] = strain CA980001 (Candida albicans)
[19] = Test N°3, ketoconazole 20 mg/kg/d for 5 d
[20] = promastigotes; read-out: CI50 Leishmania mexicana Promastigotes
[21] = strain CK980001 (Candida krusei)
[22] = strain CP980001 (Candida parapsilosis)
[23] = strain CA980002 (Candida albicans)
[24] = strain CA980003 (Candida albicans)
[25] = strain CA980005 (Candida albicans)

## CCn1cc(C(c2ccc(Cl)cc2Cl)n2cncn2)c2cc(Br)ccc21 (stereo not drawn) [Cpsé 47, 5-Bromo-1-ethyl-3-[(2,4-dichlorophenyl)(1H-1,2,4-triazol-1yl)methyl]-1H-indole]
[1]; Alamar Blue
  MIC: > 100 µM
[2]; [10]
  IC50: 25 µM and 8.07 µg/mL
[3]; [11]
  MIC: > 100 µM
other
  melting point: 124 to 126 °C

## CCN1CCc2cc(Br)cc(C(c3ccc(F)cc3)n3ccnc3)c21 (stereo not drawn) [Cpsé 51, 5-Bromo-1-ethyl-7-[(4-fluorophenyl)(1H-imidazol-1-yl)methyl]indoline]
[1]; Alamar Blue
  MIC: > 100 µM
[2]; [10]
  IC50: 59.2 µM and 23.8 µg/mL
[3]; [11]
  MIC: > 100 µM
other
  melting point: 120 to 123 °C

## Clc1ccc(Cn2cc(CCn3ccnc3)c3ccccc32)cc1 [Cpsé 59, 1-(4-Chlorobenzyl)-3-(2-1H-imidazol-1-ylethyl)-1H-indole]
other
  melting point: 78 to 80 °C

## Clc1ccc(Cn2cc(C3(Cn4ccnc4)CCCC3)c3ccccc32)cc1 [Cpsé 63, 1-[1-(4-Chlorobenzyl)-1H-indol-3yl]-1-(1H-imidazol-1-ylmethyl)cyclopentane]
other
  melting point: 91 to 92 °C

## OC(Cn1cncn1)(Cn1ccc2ccccc21)c1ccc(Cl)cc1Cl (stereo not drawn) [Cpsé 78, 2-(2,4-Dichlorophenyl)-1-(1,2,4-1H-triazol-1-yl)-3-(indol-1-yl)propan-2-ol]
[1]
  MIC: > 100 µM
[4]
  activity against the intracellular amastigote form of Leishmania (in words): very active
[4]; intracellular amastigote form
  IC50: 1.5 ± 0.01 µg/mL (≈ 3.87 µM)
[2]
  activity against Leishmania mexicana (in words): most active
[2]; [12]
  IC50: 0.1 µg/mL and 230 nM
[3]; Candida albicans, 24 h
  MIC: > 100 µM
Leishmania major; [13]
  reduction of the hepatic parasite level: 79%
  reduction of the spleen parasite level: 98.9%
[5]; Test N°3, 3 × 20 mg/kg/d for 5 d intraperitoneal
  parasite level in the kidneys compared with the control group (in words): significant reduction

## Brc1ccc(C(Cn2ccc3ccccc32)n2ccnc2)cc1 (stereo not drawn) [Cpsé 84, 1-[2-(4-Bromophenyl)-2-(1H-imidazol-1-yl)ethyl]-1H-indole]
[1]
  MIC: > 100 µM
[4]
  activity against the intracellular amastigote form of Leishmania (in words): very active
[4]; intracellular amastigote form
  IC50: 3.1 ± 0.04 µg/mL (≈ 8.46 µM)
[2]
  activity against Leishmania mexicana (in words): most active
[2]; [12]
  IC50: 0.16 µg/mL and 370 nM
[3]; Candida albicans, 24 h
  MIC: > 100 µM

## CNC[C@H](O)[C@@H](O)[C@H](O)[C@H](O)CO.[O]=[Sb](=[O])[OH] [Glucantime ®, meglumine antimoniate, reference compound]
[4]
  IC50 on the amastigote stage of Leishmania mexicana: 48.7 µg/mL
[2]
  CI50 Leishmania mexicana Promastigotes: 15000 ± 260 µg/mL
Leishmania major; Glucantime 10 mg/Kg/d, 10 days
  reduction of the hepatic parasite level: 74%
  reduction of the spleen parasite level: 82%

## CC(=O)N1CCN(c2ccc(OCC3COC(Cn4ccnc4)(c4ccc(Cl)cc4Cl)O3)cc2)CC1 (stereo not drawn) [Ketoconazole, ketoconazole, reference compound]
[4]
  IC50: 1.3 ± 0.2 µg/mL (≈ 2.45 µM)
[2]; Leishmania mexicana, read-out: CI50 Leishmania mexicana Promastigotes
  IC50: 3 ± 0.5 µg/mL
[6]; [14]
  CI80 on clinical strains of Candida: 700 ± 20 nM
[6]; [15]
  CI80 on clinical strains of Candida: 800 ± 20 nM
[6]; [16]
  CI80 on clinical strains of Candida: <10 nM
[7]; [17]
  CI80 on clinical strains of Candida: <10 nM
[3]; Candida albicans, 24 h
  MIC: 0.0094 µM (≈ 0.005 µg/mL)
[3]
  CMI or CI80 Candida albicans (CA980001): 0.005 µg/mL
[8]; [18]
  CI80 on clinical strains of Candida: 5 nM
[5]; Test N°1, ketoconazole 20 mg/kg/d for 5 d
  survival at D14: 88%
[5]; Test N°2, ketoconazole 10 mg/kg/d for 5 d
  survival at D14: Ketoconazole: no survival at D14.
[5]; [19]
  survival at D14: 88%
  survival at D18: 50%
[5]; Test N°4, ketoconazole 20 mg/kg/d for 5 d
  survival at D10: 50%
[9]
  CI80 on clinical strains of Candida: <10 nM

## OC(Cn1ccnc1)(Cn1ccc2ccccc21)c1ccc(Cl)cc1 (stereo not drawn) [compound 74]
[1]
  CMI or CI80 Aspergillus fumigatus (AF980003): 83 ± 4 μM and 29 ± 1 μg/mL
[2]; promastigotes
  CI50 Leishmania mexicana Promastigotes: 5 ± 0.2 µg/mL (≈ 14.2 µM)
[2]; [20]
  IC50: 15000 ± 600 nM
[6]; [21]
  CI80 on clinical strains of Candida: 59290 ± 1330 nM
[6]; [14]
  CI80 on clinical strains of Candida: 7740 ± 130 nM
[6]; [15]
  CI80 on clinical strains of Candida: >100000 nM
[6]; [16]
  CI80 on clinical strains of Candida: >100000 nM
[7]; clinical strains
  activity against Candida parapsilosis (in words): very active
[7]; [22]
  CI80 on clinical strains of Candida: 690 ± 30 nM
[7]; [17]
  CI80 on clinical strains of Candida: 3710 ± 1246 nM
[3]
  CMI or CI80 Candida albicans (CA980001): 0.02 µg/mL
  MIC: 0.07 µM (≈ 0.0246 µg/mL)
  activity of inhibition of Candida albicans (in words): most active
[8]
  activity against strains of Candida albicans (in words): very active
[8]; [18]
  CI80 on clinical strains of Candida: 61 ± 4 nM
[8]; [23]
  CI80 on clinical strains of Candida: 470 ± 17 nM
[8]; [24]
  CI80 on clinical strains of Candida: 70 ± 4.7 nM
[8]; [25]
  CI80 on clinical strains of Candida: 300 ± 24 nM
[9]
  activity against Candida lusitaniae (in words): very active
  CI80 on clinical strains of Candida: 630 ± 10 nM

## OC(Cn1ccnc1)(Cn1ccc2ccccc21)c1ccc(Cl)cc1Cl (stereo not drawn) [compound 75]
[1]
  CMI or CI80 Aspergillus fumigatus (AF980003): 4 ± 0 μM and 1 ± 0 μg/mL
[2]; promastigotes
  CI50 Leishmania mexicana Promastigotes: 1.47 µg/mL (≈ 3.81 µM)
[2]; [20]
  IC50: 4000 nM
[6]; clinical strains, b748: one strain
  activity against Candida krusei (in words): active
[6]; [21]
  CI80 on clinical strains of Candida: 620 ± 2 nM
[6]; [15]
  CI80 on clinical strains of Candida: >1000 nM
[6]; [16]
  CI80 on clinical strains of Candida: 4200 ± 100 nM
[7]; [22]
  CI80 on clinical strains of Candida: 1000 ± 100 nM
[7]; [17]
  CI80 on clinical strains of Candida: 860 ± 40 nM
[3]
  MIC: <0.001 µM
  activity of inhibition of Candida albicans (in words): most active
[8]
  activity against strains of Candida albicans (in words): active
[8]; [18]
  CI80 on clinical strains of Candida: <1 nM
[8]; [23]
  CI80 on clinical strains of Candida: 650 ± 10 nM
[8]; [24]
  CI80 on clinical strains of Candida: 640 ± 10 nM
[8]; [25]
  CI80 on clinical strains of Candida: 710 ± 10 nM
[5]; Test N°1, 20 mg/kg/d for 5 d
  activity on survival at the end of the experiment (D14) (in words): not on survival at the end of the experiment
  activity on the survival at D4-D5 (in words): slight activity
[5]; Test N°1, day 8 (D8), daily dose of 20 mg/kg
  survival improved compared to the control batch: 25%
[5]; Test N°2, 2 × 30 mg/kg/d for 5 d intraperitoneally
  survival at D14: Compound 75: no survival at end of experiment (D14).
[5]; Test N°2, 2 × 30 mg/kg/d for 5 d intraperitoneally, monitored 14 days (78: from D9 to D14)
  effect of treatment on the survival of the animals (in words): ineffective
[9]
  CI80 on clinical strains of Candida: 300 ± 100 nM

## OC(Cn1ccnc1)(Cn1ccc2ccccc21)c1ccc(F)cc1 (stereo not drawn) [compound 76]
[1]
  CMI or CI80 Aspergillus fumigatus (AF980003): 88 ± 2 μM and 30 ± 0.7 μg/mL
[2]; promastigotes
  CI50 Leishmania mexicana Promastigotes: 3 ± 0.03 µg/mL (≈ 8.95 µM)
[2]; [20]
  IC50: 9200 ± 90 nM
[6]; [21]
  CI80 on clinical strains of Candida: 65380 ± 3710 nM
[6]; [14]
  CI80 on clinical strains of Candida: 38050 ± 7240 nM
[6]; [15]
  CI80 on clinical strains of Candida: 85270 ± 324 nM
[6]; [16]
  CI80 on clinical strains of Candida: >100000 nM
[7]; [22]
  CI80 on clinical strains of Candida: 4100 ± 350 nM
[7]; [17]
  CI80 on clinical strains of Candida: 6320 ± 140 nM
[3]
  CMI or CI80 Candida albicans (CA980001): 0.03 µg/mL
  MIC: 0.08 µM (≈ 0.0268 µg/mL)
  activity of inhibition of Candida albicans (in words): most active
[8]
  activity against strains of Candida albicans (in words): very active
[8]; [18]
  CI80 on clinical strains of Candida: 67 ± 5 nM
[8]; [23]
  CI80 on clinical strains of Candida: 610 ± 22 nM
[8]; [24]
  CI80 on clinical strains of Candida: 250 ± 110 nM
[8]; [25]
  CI80 on clinical strains of Candida: 440 ± 44 nM
[9]
  activity against Candida lusitaniae (in words): very active
  CI80 on clinical strains of Candida: 690 ± 80 nM
